Values joined by “and” are separate entries in the source; they are usually repeats but may differ in a detail not shown here. Identical values can stand only once.
System: Hepatitis B Virus (HBV) in human HBV producer cell line of HepG2, 2.2.15
Conditions: 100 μM compound, 2.2.15 cells
Description: Antiviral Activity Against Hepatitis B Virus (HBV)
The human HBV producer cell line of HepG2, 2.2.15, described and characterized by Sells et al., PNAS 84:1005, 1987 and J. Virol. […] This cell line was utilized in vitro to identify compounds with anti-HBV activity.
Supernatant media containing extracellular virion DNA (Dane particles) were harvested on days three, six and ten, treated with proteinase K (1 mg/mL) and sodium dodecyl sulfate (1%), and incubated at 50° C. for one hour. DNA was extracted with equal volumes of phenol followed by chloroform and then precipitated by ammonium acetate and propanol. The DNA precipitate was dissolved and collected on nitrocellulose using the procedure of Schleicher and Schuell (S & S, 10 Optical Ave., Keene, N.H. 03431, Publication No. 700, 1987), and treated as described by Southern, J. Mol. Biol. 98:503, 1975. Cells were harvested, and the intracellular DNA was obtained after cell lysis with guanidine isothiocyanate. The intracellular DNA was handled in the same manner as the extracellular DNA. After precipitation by ammonium acetate and propanol, the intracellular DNA precipitate was dissolved, cut by restriction endonuclease, Hind III, applied to agarose gel and then treated as described by Southern to determine the quantity of replicative intermediate forms.

[1] = analysis 24 hours following the 10th day of treatment, duplicate cultures, experiments A and B

In the case of `Nc1nc(=O)n([C@@H]2CS[C@H](CO)O2)cc1F` (racemic) [cis-1-(2-(Hydroxymethyl)-1,3-oxathiolan-5-yl)-5-fluoro-cytosine], the “HBV DNA in Culture Medium, Day 0” value (Day 0, zero = undetectable, sensitivity cutoff 0.1 pg/mL) is reported as 90 pg/mL, the “HBV DNA in Culture Medium, Day 10” value (Day 10, zero = undetectable, sensitivity cutoff 0.1 pg/mL) is reported as 0 pg/mL and the “Intracellular HBV DNA, Monomer” value [1] is reported as 0.8 pg/μg cell DNA and 0.7 pg/μg cell DNA. For the same compound, the “Intracellular HBV DNA, Replicative intermediate” value [1] was 1 pg/μg cell DNA and 2 pg/μg cell DNA.
